Laboratory results as given in ChEMBL document CHEMBL2429740, “The synthesis and SAR study of phenylalanine-derived (Z)-5-arylmethylidene rhodanines as anti-methicillin-resistant Staphylococcus aureus (MRSA) compounds” (2013).
Converted amounts (≈) assume the structure as drawn.

Key:
Format in all cases: functional
Staphylococcus aureus [1] = assay: Antibacterial activity against methicillin-resistant Staphylococcus aureus ST239 HS770 by microdilution technique
Staphylococcus aureus [2] = assay: Antibacterial activity against methicillin-resistant Staphylococcus aureus CA ATCC BAA-1680 by microdilution technique
Staphylococcus aureus [3] = assay: Antibacterial activity against methicillin-resistant Staphylococcus aureus ATCC 700698 by microdilution technique
Staphylococcus aureus [4] = assay: Antibacterial activity against methicillin-resistant Staphylococcus aureus ATCC BAA-39 by microdilution technique
Staphylococcus aureus [5] = assay: Antibacterial activity against methicillin-resistant Staphylococcus aureus ATCC 700787 by microdilution technique
Staphylococcus aureus [6] = assay: Antibacterial activity against methicillin-resistant Staphylococcus aureus ATCC 34404 by microdilution technique

Structure (SMILES)	MIC (Staphylococcus aureus [1])	MIC (Staphylococcus aureus [2])	MIC (Staphylococcus aureus [3])	MIC (Staphylococcus aureus [4])	MIC (Staphylococcus aureus [5])	MIC (Staphylococcus aureus [6])
O=C(O)[C@H](Cc1ccccc1)N1C(=O)/C(=C/c2ccccc2Cc2ccccc2)SC1=S	15.6 µg/mL (≈ 33.9 µM)	3.9 µg/mL (≈ 8.49 µM)	7.8 µg/mL (≈ 17 µM)	7.8 µg/mL (≈ 17 µM)	7.8 µg/mL (≈ 17 µM)	15.6 µg/mL (≈ 33.9 µM)
O=C(O)c1cn(C2CC2)c2cc(N3CCNCC3)c(F)cc2c1=O [CIPROFLOXACIN]	62.5 µg/mL (≈ 189 µM)	–	–	–	62.5 µg/mL (≈ 189 µM)	≤ 0.48 µg/mL
O=C(O)[C@H](Cc1ccccc1)N1C(=O)/C(=C/c2ccccc2Oc2ccc(Cl)c(Cl)c2)SC1=S	1.95 µg/mL (≈ 3.68 µM)	3.9 µg/mL (≈ 7.35 µM)	7.8 µg/mL (≈ 14.7 µM)	3.9 µg/mL (≈ 7.35 µM)	3.9 µg/mL (≈ 7.35 µM)	3.9 µg/mL (≈ 7.35 µM)
O=C(O)[C@H](Cc1ccccc1)N1C(=O)/C(=C/c2cccc(Oc3ccc(F)cc3)c2)SC1=S	–	7.8 µg/mL (≈ 16.3 µM)	7.8 µg/mL (≈ 16.3 µM)	7.8 µg/mL (≈ 16.3 µM)	7.8 µg/mL (≈ 16.3 µM)	7.8 µg/mL (≈ 16.3 µM)
O=C(O)[C@H](Cc1ccccc1)N1C(=O)/C(=C/c2ccccc2OCCc2ccccc2)SC1=S	15.6 µg/mL (≈ 31.9 µM)	7.8 µg/mL (≈ 15.9 µM)	7.8 µg/mL (≈ 15.9 µM)	15.6 µg/mL (≈ 31.9 µM)	15.6 µg/mL (≈ 31.9 µM)	15.6 µg/mL (≈ 31.9 µM)
O=C(O)[C@H](Cc1ccccc1)N1C(=O)/C(=C/c2cccc(Cc3ccc(Cl)c(Cl)c3)c2)SC1=S	15.6 µg/mL (≈ 29.5 µM)	31.2 µg/mL (≈ 59.1 µM)	31.2 µg/mL (≈ 59.1 µM)	15.6 µg/mL (≈ 29.5 µM)	62.5 µg/mL (≈ 118 µM)	31.2 µg/mL (≈ 59.1 µM)
O=C(O)[C@H](Cc1ccccc1)N1C(=O)/C(=C/c2cccc(Oc3ccc(Cl)cc3)c2)SC1=S	–	15.6 µg/mL (≈ 31.5 µM)	7.8 µg/mL (≈ 15.7 µM)	7.8 µg/mL (≈ 15.7 µM)	15.6 µg/mL (≈ 31.5 µM)	7.8 µg/mL (≈ 15.7 µM)
O=C(O)[C@@H](Cc1ccccc1)N1C(=O)/C(=C/c2cccc(Oc3ccc(Cl)cc3)c2)SC1=S	1.95 µg/mL (≈ 3.93 µM)	1.95 µg/mL (≈ 3.93 µM)	3.9 µg/mL (≈ 7.86 µM)	1.95 µg/mL (≈ 3.93 µM)	3.9 µg/mL (≈ 7.86 µM)	1.95 µg/mL (≈ 3.93 µM)
CC1(C)S[C@@H]2[C@H](NC(=O)Cc3ccccc3)C(=O)N2[C@H]1C(=O)O [PENICILLIN G]	250 µg/mL (≈ 748 µM)	125 µg/mL (≈ 374 µM)	15.6 µg/mL (≈ 46.7 µM)	62.5 µg/mL (≈ 187 µM)	62.5 µg/mL (≈ 187 µM)	31.2 µg/mL (≈ 93.5 µM)
O=C(O)[C@H](Cc1ccccc1)N1C(=O)/C(=C/c2ccccc2Oc2ccccc2)SC1=S	–	1.95 µg/mL (≈ 4.22 µM)	1.95 µg/mL (≈ 4.22 µM)	3.9 µg/mL (≈ 8.45 µM)	1.95 µg/mL (≈ 4.22 µM)	1.95 µg/mL (≈ 4.22 µM)
O=C(O)[C@@H](Cc1ccccc1)N1C(=O)/C(=C/c2cccc(Oc3ccc(F)cc3)c2)SC1=S	1.95 µg/mL (≈ 4.07 µM)	1.95 µg/mL (≈ 4.07 µM)	1.95 µg/mL (≈ 4.07 µM)	1.95 µg/mL (≈ 4.07 µM)	1.95 µg/mL (≈ 4.07 µM)	1.95 µg/mL (≈ 4.07 µM)
O=C(O)[C@H](Cc1ccccc1)N1C(=O)/C(=C/c2cccc(OCC3CC3)c2)SC1=S	15.6 µg/mL (≈ 35.5 µM)	15.6 µg/mL (≈ 35.5 µM)	15.6 µg/mL (≈ 35.5 µM)	15.6 µg/mL (≈ 35.5 µM)	15.6 µg/mL (≈ 35.5 µM)	15.6 µg/mL (≈ 35.5 µM)
O=C(O)[C@H](Cc1ccccc1)N1C(=O)/C(=C/c2ccc(Oc3ccccc3)cc2)SC1=S	7.8 µg/mL (≈ 16.9 µM)	1.95 µg/mL (≈ 4.22 µM)	1.95 µg/mL (≈ 4.22 µM)	3.9 µg/mL (≈ 8.45 µM)	7.8 µg/mL (≈ 16.9 µM)	1.95 µg/mL (≈ 4.22 µM)
O=C(O)[C@H](Cc1ccccc1)N1C(=O)/C(=C/c2ccccc2-c2ccccc2)SC1=S	7.8 µg/mL (≈ 17.5 µM)	7.8 µg/mL (≈ 17.5 µM)	15.6 µg/mL (≈ 35 µM)	7.8 µg/mL (≈ 17.5 µM)	15.6 µg/mL (≈ 35 µM)	7.8 µg/mL (≈ 17.5 µM)
O=C(O)[C@H](Cc1ccccc1)N1C(=O)/C(=C/c2cccc(-c3ccc(Cl)c(Cl)c3)c2)SC1=S	1.95 µg/mL (≈ 3.79 µM)	7.8 µg/mL (≈ 15.2 µM)	7.8 µg/mL (≈ 15.2 µM)	3.9 µg/mL (≈ 7.58 µM)	3.9 µg/mL (≈ 7.58 µM)	3.9 µg/mL (≈ 7.58 µM)
O=C(O)[C@H](Cc1ccccc1)N1C(=O)/C(=C/c2cccc(Cc3ccccc3)c2)SC1=S	–	1.95 µg/mL (≈ 4.24 µM)	3.9 µg/mL (≈ 8.49 µM)	1.95 µg/mL (≈ 4.24 µM)	3.9 µg/mL (≈ 8.49 µM)	1.95 µg/mL (≈ 4.24 µM)
O=C(c1ccccc1)c1cccc(/C=C2\SC(=S)N([C@@H](Cc3ccccc3)C(=O)O)C2=O)c1	–	3.9 µg/mL (≈ 8.24 µM)	7.8 µg/mL (≈ 16.5 µM)	3.9 µg/mL (≈ 8.24 µM)	7.8 µg/mL (≈ 16.5 µM)	3.9 µg/mL (≈ 8.24 µM)
O=C(O)[C@H](Cc1ccccc1)N1C(=O)/C(=C/c2ccccc2OCc2ccccc2)SC1=S	7.8 µg/mL (≈ 16.4 µM)	7.8 µg/mL (≈ 16.4 µM)	7.8 µg/mL (≈ 16.4 µM)	15.6 µg/mL (≈ 32.8 µM)	15.6 µg/mL (≈ 32.8 µM)	7.8 µg/mL (≈ 16.4 µM)
O=C(O)[C@H](Cc1ccccc1)N1C(=O)/C(=C/c2cccc(Oc3cccc(F)c3)c2)SC1=S	–	31.2 µg/mL (≈ 65.2 µM)	15.6 µg/mL (≈ 32.5 µM)	15.6 µg/mL (≈ 32.5 µM)	31.2 µg/mL (≈ 65.2 µM)	15.6 µg/mL (≈ 32.5 µM)
O=C(O)[C@H](Cc1ccccc1)N1C(=O)/C(=C/c2cccc(Oc3cccc(Cl)c3)c2)SC1=S	–	15.6 µg/mL (≈ 31.5 µM)	15.6 µg/mL (≈ 31.5 µM)	15.6 µg/mL (≈ 31.5 µM)	15.6 µg/mL (≈ 31.5 µM)	15.6 µg/mL (≈ 31.5 µM)
O=C(O)[C@H](Cc1ccccc1)N1C(=O)/C(=C/c2cccc(OCc3ccccc3)c2)SC1=S	1.95 µg/mL (≈ 4.1 µM)	1.95 µg/mL (≈ 4.1 µM)	3.9 µg/mL (≈ 8.2 µM)	1.95 µg/mL (≈ 4.1 µM)	3.9 µg/mL (≈ 8.2 µM)	1.95 µg/mL (≈ 4.1 µM)
O=C(O)[C@H](Cc1ccccc1)N1C(=O)/C(=C/c2cccc(-c3cncnc3)c2)SC1=S	125 µg/mL (≈ 279 µM)	125 µg/mL (≈ 279 µM)	125 µg/mL (≈ 279 µM)	125 µg/mL (≈ 279 µM)	125 µg/mL (≈ 279 µM)	125 µg/mL (≈ 279 µM)
O=C(O)[C@H](Cc1ccccc1)N1C(=O)/C(=C/c2cccc(-c3nccs3)c2)SC1=S	3.9 µg/mL (≈ 8.62 µM)	31.2 µg/mL (≈ 69 µM)	31.2 µg/mL (≈ 69 µM)	7.8 µg/mL (≈ 17.2 µM)	31.2 µg/mL (≈ 69 µM)	15.6 µg/mL (≈ 34.5 µM)
COc1ccc(Oc2cccc(/C=C3\SC(=S)N([C@@H](Cc4ccccc4)C(=O)O)C3=O)c2)cc1	–	15.6 µg/mL (≈ 31.7 µM)	7.8 µg/mL (≈ 15.9 µM)	7.8 µg/mL (≈ 15.9 µM)	7.8 µg/mL (≈ 15.9 µM)	7.8 µg/mL (≈ 15.9 µM)
O=C(O)[C@@H](Cc1ccccc1)N1C(=O)/C(=C/c2cccc(Oc3ccccc3)c2)SC1=S	3.9 µg/mL (≈ 8.45 µM)	1.95 µg/mL (≈ 4.22 µM)	1.95 µg/mL (≈ 4.22 µM)	3.9 µg/mL (≈ 8.45 µM)	3.9 µg/mL (≈ 8.45 µM)	3.9 µg/mL (≈ 8.45 µM)
O=C(O)[C@@H](Cc1ccccc1)N1C(=O)/C(=C/c2cccc(Oc3ccc(Cl)c(Cl)c3)c2)SC1=S	3.9 µg/mL (≈ 7.35 µM)	3.9 µg/mL (≈ 7.35 µM)	1.95 µg/mL (≈ 3.68 µM)	1.95 µg/mL (≈ 3.68 µM)	15.6 µg/mL (≈ 29.4 µM)	1.95 µg/mL (≈ 3.68 µM)
CN[C@H](CC(C)C)C(=O)N[C@H]1C(=O)N[C@@H](CC(N)=O)C(=O)N[C@H]2C(=O)N[C@H]3C(=O)N[C@H](C(=O)N[C@H](C(=O)O)c4cc(O)cc(O)c4-c4cc3ccc4O)[C@H](O)c3ccc(c(Cl)c3)Oc3cc2cc(c3O[C@@H]2O[C@H](CO)[C@@H](O)[C@H](O)[C@H]2O[C@H]2C[C@](C)(N)[C@H](O)[C@H](C)O2)Oc2ccc(cc2Cl)[C@H]1O [VANCOMYCIN]	≤ 0.48 µg/mL	≤ 0.48 µg/mL	≤ 0.48 µg/mL	≤ 0.48 µg/mL	1.95 µg/mL (≈ 1.35 µM)	≤ 0.48 µg/mL
O=C(O)[C@H](Cc1ccccc1)N1C(=O)/C(=C/c2cccc(OCCc3ccccc3)c2)SC1=S	15.6 µg/mL (≈ 31.9 µM)	15.6 µg/mL (≈ 31.9 µM)	31.2 µg/mL (≈ 63.8 µM)	31.2 µg/mL (≈ 63.8 µM)	31.2 µg/mL (≈ 63.8 µM)	31.2 µg/mL (≈ 63.8 µM)
